Columns and labels:
[1] = test system: Pasteurella multocida; assay: Antibacterial activity against Pasteurella multocida at 30 mg/ml by paper disc method; format: functional; conditions: read-out: IZ
[2] = test system: Pasteurella multocida; assay: Antibacterial activity against Pasteurella multocida at40 mg/ml by paper disc method; format: functional
[3] = test system: Pasteurella multocida; assay: Antibacterial activity against Pasteurella multocida at 20 mg/ml by paper disc method; format: functional; conditions: read-out: IZ
[4] = test system: Mus musculus; assay: Toxicity in mouse at 1000 mg/kg, ip after 72 hrs; format: organism-based; parameters: dose 1000 mg/kg, route intraperitoneal; conditions: in vivo
[5] = test system: Mus musculus; assay: Toxicity in mouse at 1600 mg/kg, po after 72 hrs; format: organism-based; parameters: dose 1600 mg/kg, route oral; conditions: in vivo
[6] = test system: Salmonella enteritidis; assay: Antibacterial activity against Salmonella enteritidis at 40 mg/ml by paper disc method; format: functional, Salmonella enterica subsp. enterica serovar Enteritidis; conditions: Salmonella enterica; read-out: IZ
[7] = test system: Salmonella enteritidis; assay: Antibacterial activity against Salmonella enteritidis at 30 mg/ml by paper disc method; format: functional, Salmonella enterica subsp. enterica serovar Enteritidis; conditions: Salmonella enterica; read-out: IZ
[8] = test system: Salmonella enteritidis; assay: Antibacterial activity against Salmonella enteritidis at 20 mg/ml by paper disc method; format: functional, Salmonella enterica subsp. enterica serovar Enteritidis; conditions: Salmonella enterica; read-out: IZ

Row | Structure (SMILES) | zone of inhibition at 30000 µg/mL [1] | inhibition zone (IZ) [2] | zone of inhibition at 20000 µg/mL [3] | Activity [4] | Activity [5] | zone of inhibition at 40000 µg/mL [6] | zone of inhibition at 30000 µg/mL [7] | zone of inhibition at 20000 µg/mL [8]
1 | CC(=O)NS(=O)(=O)c1ccc(N)cc1 [SULFACETAMIDE] | 21.2 mm | 22.15 mm | 20.5 mm |  |  |  |  | 
2 | CC(=O)NS(=O)(=O)c1ccc(NCNC(=O)C2=C(O)C(N(C)C)C3CC4C(=C(O)C3(O)C2=O)C(=O)c2c(O)cccc2C4(C)O)cc1 (configuration not stated) | 27.3 mm | 28.3 mm | 26.2 mm | Toxic | Non-toxic |  |  | 
3 | Cc1cc(NS(=O)(=O)c2ccc(N)cc2)no1 [SULFAMETHOXAZOLE] | 26 mm | 28 mm | 24 mm |  |  | 18 mm | 15 mm | 15 mm
4 | CN(C)C1C(O)=C(C(=O)NCNc2ccc(S(N)(=O)=O)cc2)C(=O)C2(O)C(O)=C3C(=O)c4c(O)cccc4C(C)(O)C3CC12 (configuration not stated) | 28.6 mm | 29.08 mm | 28.4 mm | Toxic | Non-toxic | 16 mm | 15 mm | 14.7 mm
5 | N=C(N)NS(=O)(=O)c1ccc(N)cc1 [SULFAGUANIDINE] | 25 mm | 25 mm | 20 mm |  |  | 18 mm | 15 mm | 10 mm
6 | CN(C)C1C(O)=C(C(=O)NCNc2ccc(S(=O)(=O)Nc3ncccn3)cc2)C(=O)C2(O)C(O)=C3C(=O)c4c(O)cccc4C(C)(O)C3CC12 (configuration not stated) | 20.8 mm | 21.86 mm | 20.4 mm | Toxic | Non-toxic | 21.2 mm | 20.9 mm | 20 mm
7 | Cc1cc(NS(=O)(=O)c2ccc(NCNC(=O)C3=C(O)C(N(C)C)C4CC5C(=C(O)C4(O)C3=O)C(=O)c3c(O)cccc3C5(C)O)cc2)no1 (configuration not stated) | 22 mm | 23.2 mm | 21.3 mm | Toxic | Non-toxic | 22.1 mm | 21.2 mm | 21.1 mm
8 | Nc1ccc(S(=O)(=O)Nc2ncccn2)cc1 [SULFADIAZINE] | 30 mm | 39 mm | 28 mm |  |  | 20 mm | 15 mm | 10 mm
9 | Nc1ccc(S(N)(=O)=O)cc1 [SULFANILAMIDE] | 25 mm | 28 mm | 22 mm |  |  | 16 mm | 12 mm | 10 mm
10 | COc1ncnc(NS(=O)(=O)c2ccc(NCNC(=O)C3=C(O)C(N(C)C)C4CC5C(=C(O)C4(O)C3=O)C(=O)c3c(O)cccc3C5(C)O)cc2)c1OC (configuration not stated) | 23.3 mm | 24.4 mm | 22.1 mm | Toxic | Non-toxic | 15.5 mm | 15.2 mm | 15 mm
11 | CN(C)C1C(O)=C(C(=O)NCNc2ccc(S(=O)(=O)NC(=N)N)cc2)C(=O)C2(O)C(O)=C3C(=O)c4c(O)cccc4C(C)(O)C3CC12 (configuration not stated) | 24.3 mm | 25.2 mm | 24.1 mm | Toxic | Non-toxic | 14.2 mm | 13.9 mm | 13.2 mm

— ChEMBL document CHEMBL1143789, “Synthesis and biological study of medicinally important Mannich bases derived from 4-(dimethylamino)-1,4,4a,5,5a,6,11,12a-octahydro-3,6,10,12,12a pentahydroxy naphthacene carboxamide” (Bioorg Med Chem Lett, 2007)
